Assay results reported in patent US5981576A, “(Methylsulfonyl)phenyl-2-(5H)-furanones as COX-2 inhibitors” (Merck Frosst Canada, Inc., priority 1998, dated 1999).
pIC50: −log10 of the molar value. Where two headings read alike, the source gives them in different places.

Key:
[1] = biological target: T1, COX-1 (Homo sapiens, UniProt P23219); assay: biochemical; format: biochemical; conditions: Table III; U937
Description: Compounds are tested as inhibitors of cyclooxygenase activity in whole cell cyclooxygenase assays. Both of these assays measure prostaglandin E2 synthesis in response to arachidonic acid, using a radioimmunoassay. Cells used for these assays are human osteosarcoma 143 cells (which specifically express COX-2) and human U-937 cells (which specifically express COX-1). In these assays, 100% activity is defined as the difference between prostaglandin E2 synthesis in the absence and presence of arachidonate.
U 937 cells are pelleted by centrifugation at 500×g for 5 min and washed once with phosphate-buffered saline and repelleted. Cells are resuspended in homogenization buffer consisting of 0.1 M Tris-HCl, pH 7.4, 10 mM EDTA, 2 μg/ml leupeptin, 2 μg/ml soybean trypsin inhibitor, 2 μg/ml aprotinin and 1 mM phenyl methyl sulfonyl fluoride. The cell suspension is sonicated 4 times for 10 sec and is centrifuged at 10,000×g for 10 min at 4° C. The supernatant is centrifuged at 100,000×g for 1 hr at 4 ° C. The 100,000×g microsomal pellet is resuspended in 0.1 M Tris-HCl, pH 7.4, 10 mM EDTA to approximately 7 mg protein/ml and stored at -80° C.
Microsomal preparations are thawed immediately prior to use, subjected to a brief sonication, and then diluted to a protein concentration of 125 μg/ml in 0.1 M Tris-HCl buffer, pH 7.4 containing 10 mM EDTA, 0.5 mM phenol, 1 mM reduced glutathione and 1 μM hematin. Assays are performed in duplicate in a final volume of 250 μl. Initially, 5 μd of DMSO vehicle or drug in DMSO are added to 20 μl of 0.1 M Tris-HCl buffer, pH 7.4 containing 10 mM EDTA in wells of a 96-deepwell polypropylene titre plate. 200 μl of the microsomal preparation are then added and pre-incubated for 15 min at room temperature before addition of 25 μl of […] in 0.1 M Tris-HCl and 10 mM EDTA, pH 7.4. […] Cyclooxygenase activity is defined as the difference between PGE2 levels in samples incubated in the presence of arachidonic acid and ethanol vehicle.

[2] = biological target: T2, COX-2 (Homo sapiens, UniProt P35354); assay: cell-based; conditions: Table IV; human whole blood, LPS-induced PGE2; read-out: COX-2 (IC50, μM) HWB
T2 sequence (P35354 18-604): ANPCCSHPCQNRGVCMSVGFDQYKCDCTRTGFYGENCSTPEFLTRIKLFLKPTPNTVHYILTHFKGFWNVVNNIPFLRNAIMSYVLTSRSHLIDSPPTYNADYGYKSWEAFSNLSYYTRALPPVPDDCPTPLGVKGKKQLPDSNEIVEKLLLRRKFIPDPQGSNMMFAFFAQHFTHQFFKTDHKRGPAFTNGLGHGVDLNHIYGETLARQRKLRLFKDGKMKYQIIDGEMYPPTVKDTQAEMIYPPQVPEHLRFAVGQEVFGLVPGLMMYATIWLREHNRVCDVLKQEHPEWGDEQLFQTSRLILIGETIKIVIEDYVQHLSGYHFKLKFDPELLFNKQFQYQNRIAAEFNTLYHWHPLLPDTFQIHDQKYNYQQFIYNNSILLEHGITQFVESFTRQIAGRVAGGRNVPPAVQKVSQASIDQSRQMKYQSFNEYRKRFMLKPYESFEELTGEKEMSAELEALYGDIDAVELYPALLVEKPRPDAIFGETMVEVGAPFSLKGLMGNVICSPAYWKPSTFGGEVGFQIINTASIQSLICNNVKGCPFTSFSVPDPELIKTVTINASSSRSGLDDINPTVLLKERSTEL
Text: (§1) As well, platelets in whole blood contain a large amount of the COX-1 enzyme. Immediately following blood clotting, platelets are activated through a thrombin-mediated mechanism. […] Therefore, the degree of selectivity by the test compound can be determined by measuring the levels of PGE2 after LPS induction (COX-2) and TxB2 following blood clotting (COX-1) in the same assay.
A. COX-2 (LPS-induced PGF, production)
Fresh blood is collected in heparinized tubes by venipuncture from both male and female volunteers. The subjects have no apparent inflammatory conditions and have not taken any NSAIDs for at least 7 days prior to blood collection. Plasma is immediately obtained from a 2 mL blood aliquot to use as blank (basal levels of PGE2).

[3] = biological target: T2, COX-2; assay: cell-based; conditions: Table IV; CHO[hCOX-2] cells, 10 μM AA
Description: Chinese hamster ovary (CHO) cell lines which have been stably transfected with an eukaryotic expression vector pCDNAIII containing either the human COX-1 or COX-2 cDNA's are used for the assay. These cell lines are referred to as CHO [hCOX-1] and CHO [hCOX-2], respectively. […] Cells (0.3×10^6 cells in 200 μl) are preincubated with 3 μl of the test drug or DMSO vehicle for 15 min at 37° C. […] Cells are then challenged in the presence or absence of drug with the AA/HBSS solution to yield a final concentration of 0.5 μM AA in the CHO[hCOX-1] assay and a final concentration of 10 μM AA in the CHO[hCOX-2] assay. […] The samples are centrifuged at 300×g at 4° C. for 10 min, and an aliquot of the clarified supernatant is appropriately diluted for the determination of PGE2 levels using an enzyme-linked immunoassay for PGE2 (Correlate PGE2 enzyme immunoassay kit, Assay Designs, Inc.). Cyclooxygenase activity in the absence of test compounds is determined as the difference in PGE2 levels of cells challenged with arachidonic acid versus the PGE2 levels in cells mock-challenged with ethanol vehicle. Inhibition of PGE2 synthesis by test compounds is calculated as a percentage of the activity in the presence of drug versus the activity in the positive control samples.

[4] = biological target: T1, COX-1; assay: Human whole blood assay, COX-1 (clotting-induced TxB2 production); format: cell-based; conditions: Table III, read-out: COX-1 (IC50) HWB
Text: as §1
B. COX-1 (Clotting-induced TxB2 production)
Fresh blood is collected into vacutainers containing no anticoagulants. Aliquots of 500 μL are immediately transferred to siliconized microcentrifuge tubes preloaded with 2 μL of either DMSO or a test compound at final concentrations varying from 10 nM to 30 μM. The tubes are vortexed and incubated at 37° C. for 1 hour to allow blood to clot. At the end of incubation, serum is obtained by centrifugation (12,000×g for 5 min.). A 100 μL aliquot of serum is mixed with 400 μL of methanol for protein precipitation.

T1 sequence (P23219 24-599): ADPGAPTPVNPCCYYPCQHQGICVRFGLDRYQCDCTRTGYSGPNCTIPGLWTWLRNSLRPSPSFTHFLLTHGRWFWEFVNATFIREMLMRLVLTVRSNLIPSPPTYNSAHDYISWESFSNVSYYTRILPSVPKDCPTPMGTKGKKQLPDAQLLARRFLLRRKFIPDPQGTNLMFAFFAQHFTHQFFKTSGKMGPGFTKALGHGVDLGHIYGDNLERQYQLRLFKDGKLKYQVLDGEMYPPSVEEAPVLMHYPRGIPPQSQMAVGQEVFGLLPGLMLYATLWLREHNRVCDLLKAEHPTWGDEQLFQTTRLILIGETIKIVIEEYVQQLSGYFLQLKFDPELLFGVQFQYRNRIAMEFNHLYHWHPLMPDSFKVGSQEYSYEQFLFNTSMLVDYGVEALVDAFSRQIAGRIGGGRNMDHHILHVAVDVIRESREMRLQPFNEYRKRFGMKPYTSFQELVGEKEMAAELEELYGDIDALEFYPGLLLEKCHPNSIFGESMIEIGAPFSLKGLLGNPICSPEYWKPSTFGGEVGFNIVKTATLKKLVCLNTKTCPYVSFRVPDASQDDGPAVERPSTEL

Row | SMILES | pIC50 [1] | also measured
1 | CC1(C)OC(=O)C(Oc2ccc(C(C)(C)O)cc2)=C1c1ccc(S(C)(=O)=O)cc1 [Example 191] |  | IC50 [2]: 4.3 µM; IC50 [3]: 0.98 µM
2 | CC1(C)OC(=O)C(Oc2cc(F)cc(F)c2)=C1c1ccc(S(C)(=O)=O)cc1 [Example 3, 3-(3,5-Difluorophenoxy)-5,5-dimethyl-4-(4-(methylsulfonyl)phenyl)-5H-furan-2-one] |  | pIC50 [4]: 5.21
3 | CC1(C)OC(=O)C(Sc2cc(F)cc(F)c2)=C1c1ccc(S(C)(=O)=O)cc1 [Example 10, 3-(3,5-Difluorophenylthio)-5,5-dimethyl-4-(4-(methylsulfonyl)phenyl)-5H-furan-2-one] | < 5.00 | 
4 | CC1(C)OC(=O)C(C(=O)c2ccccc2)=C1c1ccc(S(C)(=O)=O)cc1 [Example 19b, 3-Benzoyl-5,5-dimethyl-4-(4-(methylsulfonyl)phenyl)-5H-furan-2-one] | < 5.00 | 
5 | C[C@]1(CC(F)(F)F)OC(=O)C(Oc2ccc(Cl)cn2)=C1c1ccc(S(C)(=O)=O)cc1 [Example 130, (5R)-3-(5-Chloro-2-pyridyloxy)-5-methyl-4-(4-methylsulfonyl)phenyl-5-(2,2,2-trifluoroethyl)-5H-furan-2-one] |  | IC50 [2]: < 0.41 µM
6 | Cc1cccc(OC2=C(c3ccc(S(C)(=O)=O)cc3)C(C)(C)OC2=O)n1 [Example 27, 3-(6-Methyl-2-pyridyloxy)-5,5-dimethyl-4-(4-(methylsulfonyl)phenyl)-5H-furan-2-one] | < 5.00 | 
7 | CC1(C)OC(=O)C(C(=O)c2ccc(F)c(F)c2)=C1c1ccc(S(C)(=O)=O)cc1 [Example 18, 3-(3,4-Difluorobenzoyl)-5,5-dimethyl-4-(4-(methylsulfonyl)phenyl)-5H-furan-2-one] | < 4.52 | 
8 | CS(=O)(=O)c1ccc(C2=C(Sc3ccccc3)C(=O)OC23CCCC3)cc1 [Example 21, 4-(4-(Methylsulfonyl)phenyl)-3-phenylthio-1-oxaspiro[4.4]non-3-en-2-one] | < 5.00 | 
9 | CC1(C)OC(=O)C(C(O)c2ccc(F)c(F)c2)=C1c1ccc(S(C)(=O)=O)cc1 (stereo not drawn) [Example 17, 3-(3,4-Difluorophenylhydroxymethyl)-5,5-dimethyl-4-(4-(methylsulfonyl)phenyl)-5H-furan-2-one] | < 5.00 | 
10 | CC1(C)OC(=O)C(Sc2ccc(F)cc2)=C1c1ccc(S(C)(=O)=O)cc1 [Example 9, 3-(4-Fluorophenylthio)-5,5-dimethyl-4-(4-(methylsulfonyl)phenyl)-5H-furan-2-one] | < 5.00 | 
11 | CN(C1=C(c2ccc(S(C)(=O)=O)cc2)C(C)(C)OC1=O)c1ccccc1 [Example 13, 3-(N-Methyl-N-phenylamino)-5,5-dimethyl-4-(4-(methylsulfonyl)phenyl)-5H-furan-2-one] | < 5.00 | 
12 | CC1(COC2=C(c3ccc(S(C)(=O)=O)cc3)C(C)(C)OC2=O)CC1 [Example 173] |  | IC50 [2]: < 0.41 µM
13 | CC1(C)OC(=O)C(Oc2cccc(C(F)(F)F)c2)=C1c1ccc(S(C)(=O)=O)cc1 [Example 110] |  | IC50 [3]: > 5 µM
14 | CC1(C)OC(=O)C(Cc2ccc(F)cc2)=C1c1ccc(S(C)(=O)=O)cc1 [Example 23, 3-(4-Fluorobenzyl)-5,5-dimethyl-4-(4-(methylsulfonyl)phenyl)-5H-furan-2-one] | < 4.52 | 
15 | Cc1ncc(OC2=C(c3ccc(S(C)(=O)=O)cc3)C(C)(C)OC2=O)cc1Br [Example 137] |  | IC50 [2]: 5.2 µM; IC50 [3]: 0.55 µM
16 | CC1(C)OC(=O)C(Cc2ccccc2)=C1c1ccc(S(C)(=O)=O)cc1 [Example 16, 3-Benzyl-5,5-dimethyl-4-(4-(methylsulfonyl)phenyl)-5H-furan-2-one] | < 5.00 | 

Continued, in another order:

Row | pIC50 [1] | SMILES | also measured
17 | < 5.00 | CC1(C)OC(=O)C(Nc2ccccc2)=C1c1ccc(S(C)(=O)=O)cc1 [Example 12, 3-(N-Phenylamino)-5,5-dimethyl-4-(4-(methylsulfonyl)phenyl)-5H-furan-2-one] | 
18 | 6.52 | CC1(C)OC(=O)C(Oc2ccc(F)cc2)=C1c1ccc(S(C)(=O)=O)cc1 [Example 8, 3-(4-Fluorophenoxy)-5,5-dimethyl-4-(4-(methylsulfonyl)phenyl)-5H-furan-2-one] | 
19 | 6.40 | CC1(C)OC(=O)C(Oc2ccc(Cl)cc2)=C1c1ccc(S(C)(=O)=O)cc1 [Example 6, 3-(4-Chlorophenoxy)-5,5-dimethyl-4-(4-(methylsulfonyl)phenyl)-5H-furan-2-one] | 
20 | ~5.00 | CC1(C)OC(=O)C(Oc2ccccn2)=C1c1ccc(S(C)(=O)=O)cc1 [Example 26, 3-(2-pyridyloxy)-5,5-dimethyl-4-(4-(methylsulfonyl)phenyl)-5H-furan-2-one] | 
21 | 6.52 | CS(=O)(=O)c1ccc(C2=C(Oc3ccccc3)C(=O)OC23CCCC3)cc1 [Example 20, 4-(4-(Methylsulfonyl)phenyl)-3-phenoxy-1-oxaspiro[4.4]non-3-en-2-one] | 
22 | 5.52 | CC1(C)OC(=O)C(Oc2cccc(F)c2)=C1c1ccc(S(C)(=O)=O)cc1 [Example 2, 3-(3-Fluorophenoxy)-5,5-dimethyl-4-(4-(methylsulfonyl)phenyl)-5H-furan-2-one] | 
23 | 6.52 | CC1(C)OC(=O)C(Oc2ccc(F)cc2F)=C1c1ccc(S(C)(=O)=O)cc1 [Example 5, 3-(2,4-Difluorophenoxy)-5,5-dimethyl-4-(4-(methylsulfonyl)phenyl)-5H-furan-2-one] | 
24 | 6.00 | CC1(C)OC(=O)C(Oc2ccc(Cl)c(Cl)c2)=C1c1ccc(S(C)(=O)=O)cc1 [Example 7, 3-(3,4-Dichlorophenoxy)-5,5-dimethyl-4-(4-(methylsulfonyl)phenyl)-5H-furan-2-one] | 
25 | < 6.00 | NS(=O)(=O)c1ccc(C2=C(Sc3ccccc3)C(=O)OC23CCCC3)cc1 [Example 22, 4-(2-Oxo-3-phenylthio-1-oxa-spiro[4,4]non-3-en-4-yl)benzene-sulfonamide] | 
